Paper PMC4790851, “Iminosugars Inhibit Dengue Virus Production via Inhibition of ER Alpha-Glucosidases—Not Glycolipid Processing Enzymes” (PLoS Neglected Tropical Diseases, 2016)
“Also recorded” adds a separate entry of the source.

Key:
[1] = test system: DENV2 D2S10; assay: Lethal mouse model of antibody-enhanced DENV infection; assay type: in vivo, AG129 mice; conditions: 33.3 mg/kg/dose t.i.d. p.o.
Experimental: Virus titers of samples isolated from infected mice were obtained by BHK-21 plaque assays in accordance with previous protocols. BHK-21 cells were seeded in 12-well plates (3 x 10^5 cells/well) in α-MEM medium containing 5% HI-FBS for 3 hours (37°C, 5% CO2). Medium was removed, log10 serial dilutions of virus in α-MEM with 2% HI-FBS were added, and cells were incubated for an additional 2 hours (37°C, 5% CO2). Following incubation, 1.5 ml of α-MEM containing 5% (v/v) HI-FBS and 1% (w/v) low-melting point tissue culture grade agarose (Sigma) was added to each well and allowed to solidify at room temperature before further incubation (37°C, 5% CO2) for 5 days. Plaques were visualised after fixation in 10% formaldehyde (1 hour, room temperature) and removal of the agarose plug by staining briefly (approximately 30 seconds) with 1% (w/v) crystal violet (Sigma) in 20% (v/v) ethanol (EtOH, Sigma). Concentrations were normalised to tissue mass (in grams) or serum volume (in ml) as appropriate.
For animal experiments, multiplex qRT-PCR was conducted on all tissue isolates and plasma as described for in vitro experiments. Rodent glyceraldehyde 3-phosphate dehydrogenase (GAPDH) control (Life Technologies #4308313) containing a VIC reporter dye was attached to a TAMRA (tetramethylrhodamine) quencher, and experimental DENV NS5-specific target was labelled with FAM (6-fluorescein amidite) reporter dyes with a TAMRA quencher. GAPDH primers were used at 10 μM and probe at 20 μM. In the case of DENV qRT-PCR, quantitation using a DENV2-specific primer/probe set directed to NS5 was conducted using all primers and probe at 10 μM final concentration. Thermocycling was conducted as for in vitro experiments. Viral RNA from tissues was quantified by ΔΔCt method, whereas plasma samples were quantified relative to a standard curve as for in vitro experiments. Samples were read in technical duplicate and 95% confidence intervals were determined based on biological and technical variation and graphed using Prism 6 (GraphPad Software, Inc.).
All experimental procedures were pre-approved by the UC Berkeley Animal Care and Use Committee and were performed according to the guidelines of the UC Berkeley Animal Care and Use Committee, the United States Public Health Service, and the USDA Animal Welfare Act. Mice of the 129/Sv background deficient in interferon (IFN)-α/β and -γ receptors (AG129 mice) were infected with DENV under antibody-enhanced conditions as previously described. Mice were primed 24 hours prior to infection with a 5 μg intraperitoneal (i.p.) injection of a pan-flavivirus monoclonal antibody against E protein, 4G2. At t = 0, 10^5 pfu of DENV2 D2S10 was injected intravenously. […]

[2] = test system: dengue infection; set-up: method as in PMID 24877997, PMID 12355369; conditions: oral, 400 mg loading dose then 200 mg/dose b.i.d.; cited from earlier work
[3] = serum at 80 h post-infection, AG129 mice, listed as celgosivir

CCCC(=O)O[C@H]1CN2CC[C@H](O)[C@@H]2[C@@H](O)[C@@H]1O [Celgosivir, 6-O-butanoyl-castanospermine]
viral RNA levels in spleen ([1]; 80 h post-infection, qRT-PCR normalized to GAPDH): enhanced viral RNA levels by approximately two orders of magnitude | infectious virus level in serum (BHK-21 plaque assay) ([1]; serum at 80 h post-infection, AG129 mice): reduced the average viral titer, but the differences were not statistically significant | circulating viral load (viral RNA, qRT-PCR) [1, 3]: significantly reduced; also recorded: statistically significant reduction in viral RNA load | infectious virus level in serum (BHK-21 plaque assay) [1, 3]: not statistically significant | reduction in viral load or fever burden in patients [2]: failed to demonstrate reduction in viral load or fever burden
